From US6972294B1, “Compounds, their preparation and use” (Novo Nordisk, A/S, priority 1999, dated 2005)

melting point: 84 to 87 °C
Structure (SMILES): CCOC(=O)C(Cc1ccc(OCC=C(c2ccccc2)c2ccncc2)cc1)OCC (stereo not shown) [Example 29, 2-Ethoxy-3-[4-(3-phenyl-3-pyridin-4-yl-allyloxy)-phenyl]-propionic acid ethyl ester]
